# Experimental data from patent US20210260051A1, “COMBINATION OF EZH2 INHIBITOR AND CHECKPOINT THERAPY FOR THE TREATMENT OF CANCER” (Board of Regents, The University of Texas System, priority 2018, published 2021).
# Key:
# [1] = test system: EZH2; test: EZH2 expression in peripheral CD4 T cells of patients with metastatic melanoma (RNA sequencing); type: in vivo, human; conditions: after three doses vs baseline, FIG. 2B
# Source text: (§1) FIGS. 2A-2C: Ipilimumab increases EZH2 expression in T cells. (FIG. 2A) Unsupervised hierarchical cluster analysis of RNA sequencing data from the peripheral CD4 T cells of patients with metastatic melanoma before and after 3 doses of ipilimumab therapy (week 7). (FIG. 2B) Matched pair analysis of EZH2 expression before and after ipilimumab therapy. (FIG. 2C) Ezh2 expression in peripheral CD4 T cells from patients with metastatic prostate cancer at baseline and after 3 doses of ipilimumab therapy. (2 tailed student t test was used to determine significance; **p<0.01).
# T cell activation by CD28 signaling induces EZH2 expression (DuPage et al., 2015). It was postulated that exaggerated CD28 signaling due to anti-CTLA-4 therapy would increase EZH2 expression in T cells. To test this hypothesis, peripheral CD4 T cells were isolated from patients with metastatic melanoma who received ipilimumab as the first line of therapy for metastatic disease, at baseline and after three doses of ipilimumab therapy.
# Patient samples. […]
# RNA sequencing. […] For bioinformatics analysis, the raw reads were aligned to the mm10 reference genome using TopHat2. HTSeq count was used to count the raw reads that were uniquely mapped to each gene. DESeq2 was then applied to normalize the raw read counts and identify the differentially expressed genes between the groups. […]
# [2] = test system: EZH2; test: EZH2 expression in peripheral CD4 T cells of patients with metastatic prostate cancer; type: in vivo, human; conditions: after three doses vs baseline, FIG. 2C
# Source text: as §1
# (§2) Next, EZH2 expression was confirmed in peripheral CD4 T cells isolated from patients with metastatic prostate cancer at baseline and after three doses of ipilimumab (Subudhi et al., 2016). Like in patients with metastatic melanoma, increased EZH2 expression was found in CD4 T cells following ipilimumab therapy (FIG. 2C) that inversely correlated with prostate-specific antigen progression (FIG. 6). Next, EZH2 expression was evaluated on human CD4 effector T cells (CD4^+CD45RO^−CD45RA^+CCR7^−), regulatory T cells (CD4^+CD25^+FoxP3^+) and CD8 T cells sorted from peripheral blood of at baseline and post-ipilimumab therapy.
# Patient samples. Metastatic melanoma samples were obtained from patients who received ipilimumab as the standard of care. […]
# [3] = test system: EZH2; test: flow cytometry of EZH2 expression in sorted peripheral T cell subsets before and after ipilimumab; type: in vivo, human; conditions: peripheral blood, post-ipilimumab vs baseline; FIG. 7
# Source text: FIG. 7: Flow cytometry analysis of EZH2 expression on CD4^+CD45RO^−CD45RA+CCR7^− (CD4 T effector, Teff), CD4^+CD25^+FoxP3^+ (T regulatory, T-reg) and CD8 T cells derived from peripheral blood mononuclear cells of patients with metastatic melanoma at baseline and after three doses of ipilimumab. Matched pair analysis of Ezh2 expression before and after ipilimumab therapy. Student t-test was used for significance (**p<0.01, *p<0.05).
# as §2, with “Like in patients with metastatic melanoma, increased EZH2 expression was found in CD4 T cells following ipilimumab therapy (FIG. 2C) that inversely correlated with prostate-specific antigen progression (FIG. 6).” left out
# Tissue processing and flow cytometry. […] Staining with intracellular anti-Foxp3 (eBioscience, FJK-16 s), […] (eBioscience, PC61.5), antiKi-67 (eBioscience, SolA15), antiIFN-γ (BioLegend, XMG1.2), anti-TNF-α (BioLegend, MP6-XT22), and anti-EZH2 (Cell Signaling Technology, D2C9) were analyzed by flow cytometry according to the manufacturers’ instructions. Flow cytometry data were acquired on BD LSR II (BD Biosciences) and analyzed using FlowJo software (Tree Star, Ashland, Oreg.).
# [4] = patients, in combination with other immune checkpoint therapy such as Nivolumab; cited from earlier work
substance,measurement,setting,value
ipilimumab: a fully human monoclonal immunoglobulin G1 antibody that blocks cytotoxic T lymphocyte associated protein 4,EZH2 expression in peripheral CD4 T cells,[1],increase
same,EZH2 expression in CD4 T cells,[2],increased
same,"EZH2 expression in CD4 effector T cells, regulatory T cells and CD8 T cells",[3],increased in all three T cell subtypes
same,side effect profile,[4],manageable side effect profile
